Laboratory results taken from the kinase profiling compilation of Christmann-Franck et al. (2016).

Legend:
Test in all cases: KINOMEscan competition binding
Conditions in all cases: compound 10.0 µM
[1] = target: MAP2K5 (human) (UniProt Q13163)
[2] = target: PLK2 (human) (UniProt Q9NYY3)
[3] = target: TRPM6 (human) (UniProt Q9BX84)
[4] = target: DSTYK (human) (UniProt Q6XUX3)
[5] = target: VRK2 (human) (UniProt Q86Y07)
[6] = target: STK32A (human) (UniProt Q8WU08)
[7] = target: DDR1 (human) (UniProt Q08345)
[8] = target: CDKL3 (human) (UniProt Q8IVW4)
[9] = target: PIP5K1C (human) (UniProt O60331)
[10] = target: STK38 (human) (UniProt Q15208)
[11] = target: PIK3CA (human) (UniProt P42336)
[12] = target: PIP4K2C (human) (UniProt Q8TBX8)
[13] = target: MAK (human) (UniProt P20794)
[14] = target: CDK4 CCND3 (human) (UniProt P11802+P30281)
[15] = target: CDK4 CCND1 (human) (UniProt P11802+P24385)
[16] = tested on: PIK3CA (human), P42336 [C420R]
[17] = target: TAOK2 (human) (UniProt Q9UL54)
[18] = target: CDK13 (human) (UniProt Q14004)
[19] = target: NEK4 (human) (UniProt P51957)
[20] = target: PRPF4B (human) (UniProt Q13523)
[21] = target: MAP3K6 (human) (UniProt O95382)
[22] = target: NIM1 (human) (UniProt Q8IY84)
[23] = target: GRK4 (human) (UniProt P32298)
[24] = target: BTK (human) (UniProt Q06187)
[25] = target: STK39 (human) (UniProt Q9UEW8)
[26] = target: SNRK (human) (UniProt Q9NRH2)
[27] = target: DYRK1A (human) (UniProt Q13627)
[28] = target: PIK3C2G (human) (UniProt O75747)
[29] = target: PKN3 (M.tuberculosis) (UniProt Q6P5Z2)
[30] = target: HUNK (human) (UniProt P57058)
[31] = target: GRK1 (human) (UniProt Q15835)
[32] = target: ICK (human) (UniProt Q9UPZ9)
[33] = target: PRKCI (human) (UniProt P41743)
[34] = tested on: CPK1 (P.falciparum)
[35] = target: IRAK4 (human) (UniProt Q9NWZ3)
[36] = target: IRAK1 (human) (UniProt P51617)
[37] = target: MET (human) (UniProt P08581)
[38] = tested on: EGFR (human), P00533 [L861Q]
[39] = target: EGFR (human) (UniProt P00533)
[40] = tested on: EGFR (human), P00533 [G719S]

Sequence of VRK2 (human) (Q86Y07 whole entry, looked up): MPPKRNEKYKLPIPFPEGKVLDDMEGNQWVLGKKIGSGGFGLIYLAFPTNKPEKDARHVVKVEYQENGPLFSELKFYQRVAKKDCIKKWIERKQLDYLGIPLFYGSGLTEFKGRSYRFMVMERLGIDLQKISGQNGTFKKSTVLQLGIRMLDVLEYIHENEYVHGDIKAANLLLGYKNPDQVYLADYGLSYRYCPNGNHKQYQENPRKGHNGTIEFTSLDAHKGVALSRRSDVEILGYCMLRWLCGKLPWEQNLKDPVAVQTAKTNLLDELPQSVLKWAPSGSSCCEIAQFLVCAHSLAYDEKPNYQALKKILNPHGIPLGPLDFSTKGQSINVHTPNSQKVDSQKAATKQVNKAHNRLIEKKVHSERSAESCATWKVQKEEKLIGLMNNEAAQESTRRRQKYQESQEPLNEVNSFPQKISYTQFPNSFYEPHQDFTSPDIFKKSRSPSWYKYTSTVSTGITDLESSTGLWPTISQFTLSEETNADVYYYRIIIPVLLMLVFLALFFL
Sequence of CDKL3 (human) (Q8IVW4 whole entry, looked up): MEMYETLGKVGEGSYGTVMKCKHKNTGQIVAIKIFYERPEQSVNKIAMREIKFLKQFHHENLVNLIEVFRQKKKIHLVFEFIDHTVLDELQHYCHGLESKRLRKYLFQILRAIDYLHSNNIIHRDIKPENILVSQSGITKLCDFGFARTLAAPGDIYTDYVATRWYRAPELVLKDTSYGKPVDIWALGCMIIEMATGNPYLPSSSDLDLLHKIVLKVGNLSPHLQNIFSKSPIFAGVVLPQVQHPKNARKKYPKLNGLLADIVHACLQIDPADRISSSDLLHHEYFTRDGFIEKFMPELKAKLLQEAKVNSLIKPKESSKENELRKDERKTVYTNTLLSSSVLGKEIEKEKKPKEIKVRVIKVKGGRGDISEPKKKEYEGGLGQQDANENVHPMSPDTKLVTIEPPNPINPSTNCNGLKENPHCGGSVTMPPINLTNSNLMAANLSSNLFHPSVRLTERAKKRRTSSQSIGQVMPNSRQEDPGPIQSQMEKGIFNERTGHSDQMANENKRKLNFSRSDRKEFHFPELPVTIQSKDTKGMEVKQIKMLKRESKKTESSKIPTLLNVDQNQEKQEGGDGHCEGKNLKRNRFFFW
Sequence of PRPF4B (human) (Q13523 whole entry, looked up): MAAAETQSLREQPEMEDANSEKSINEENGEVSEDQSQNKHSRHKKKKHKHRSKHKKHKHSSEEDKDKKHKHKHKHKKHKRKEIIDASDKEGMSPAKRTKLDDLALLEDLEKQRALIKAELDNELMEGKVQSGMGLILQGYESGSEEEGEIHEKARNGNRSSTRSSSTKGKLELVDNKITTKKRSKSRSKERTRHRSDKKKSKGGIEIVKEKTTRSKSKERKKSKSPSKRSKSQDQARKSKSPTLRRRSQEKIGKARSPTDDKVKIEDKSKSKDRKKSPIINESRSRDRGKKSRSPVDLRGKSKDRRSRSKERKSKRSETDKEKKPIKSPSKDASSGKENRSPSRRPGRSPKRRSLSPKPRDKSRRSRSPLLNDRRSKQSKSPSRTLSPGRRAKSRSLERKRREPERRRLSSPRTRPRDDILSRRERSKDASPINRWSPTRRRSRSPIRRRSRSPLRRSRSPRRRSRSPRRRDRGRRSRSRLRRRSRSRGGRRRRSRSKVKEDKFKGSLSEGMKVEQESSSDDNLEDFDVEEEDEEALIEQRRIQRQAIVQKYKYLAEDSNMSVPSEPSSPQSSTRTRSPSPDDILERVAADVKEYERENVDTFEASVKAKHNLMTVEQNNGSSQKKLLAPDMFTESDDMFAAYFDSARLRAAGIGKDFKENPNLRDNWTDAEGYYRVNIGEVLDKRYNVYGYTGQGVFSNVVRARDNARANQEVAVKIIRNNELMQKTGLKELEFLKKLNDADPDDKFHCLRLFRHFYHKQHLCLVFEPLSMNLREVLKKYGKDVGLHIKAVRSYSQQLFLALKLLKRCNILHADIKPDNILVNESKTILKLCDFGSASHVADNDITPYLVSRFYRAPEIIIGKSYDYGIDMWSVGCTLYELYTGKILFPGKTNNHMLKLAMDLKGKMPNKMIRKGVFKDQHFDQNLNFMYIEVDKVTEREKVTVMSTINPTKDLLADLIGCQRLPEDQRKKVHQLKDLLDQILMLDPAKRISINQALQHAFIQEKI
Sequence of MAP2K5 (human) (Q13163 whole entry, looked up): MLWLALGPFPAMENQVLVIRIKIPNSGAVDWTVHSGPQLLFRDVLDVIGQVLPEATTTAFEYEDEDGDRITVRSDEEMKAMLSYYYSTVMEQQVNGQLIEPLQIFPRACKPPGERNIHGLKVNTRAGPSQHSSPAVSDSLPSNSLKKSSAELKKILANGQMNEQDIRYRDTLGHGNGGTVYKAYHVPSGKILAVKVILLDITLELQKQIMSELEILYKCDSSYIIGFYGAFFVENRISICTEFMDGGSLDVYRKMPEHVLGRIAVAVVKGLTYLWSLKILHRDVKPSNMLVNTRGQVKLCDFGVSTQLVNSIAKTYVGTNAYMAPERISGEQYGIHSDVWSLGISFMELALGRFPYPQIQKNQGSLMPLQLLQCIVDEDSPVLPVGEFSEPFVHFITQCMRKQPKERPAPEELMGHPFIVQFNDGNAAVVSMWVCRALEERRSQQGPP
Sequence of DDR1 (human) (Q08345 whole entry, looked up): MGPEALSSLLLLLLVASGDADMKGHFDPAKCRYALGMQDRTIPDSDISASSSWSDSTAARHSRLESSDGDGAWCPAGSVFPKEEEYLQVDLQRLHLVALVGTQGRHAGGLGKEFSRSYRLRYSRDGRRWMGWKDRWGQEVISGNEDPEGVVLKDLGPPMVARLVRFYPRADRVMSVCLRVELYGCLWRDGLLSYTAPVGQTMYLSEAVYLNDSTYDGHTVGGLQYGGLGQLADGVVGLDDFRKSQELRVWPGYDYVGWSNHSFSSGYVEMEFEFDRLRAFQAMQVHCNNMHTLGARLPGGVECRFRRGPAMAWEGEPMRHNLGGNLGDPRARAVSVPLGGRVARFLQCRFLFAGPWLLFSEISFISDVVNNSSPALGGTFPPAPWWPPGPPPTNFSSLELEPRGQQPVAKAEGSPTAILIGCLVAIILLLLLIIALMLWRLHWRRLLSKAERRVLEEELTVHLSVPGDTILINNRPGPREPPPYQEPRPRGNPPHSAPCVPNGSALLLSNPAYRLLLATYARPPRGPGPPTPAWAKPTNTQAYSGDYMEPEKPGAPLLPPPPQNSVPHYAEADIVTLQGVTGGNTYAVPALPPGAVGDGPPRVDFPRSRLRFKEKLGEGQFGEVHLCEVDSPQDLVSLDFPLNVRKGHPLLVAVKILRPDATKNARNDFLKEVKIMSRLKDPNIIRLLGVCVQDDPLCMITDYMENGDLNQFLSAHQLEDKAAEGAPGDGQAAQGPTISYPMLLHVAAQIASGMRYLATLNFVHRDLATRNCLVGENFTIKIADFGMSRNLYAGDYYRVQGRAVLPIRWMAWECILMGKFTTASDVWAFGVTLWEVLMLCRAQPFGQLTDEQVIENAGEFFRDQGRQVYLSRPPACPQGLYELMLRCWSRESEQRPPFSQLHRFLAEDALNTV
Sequence of GRK4 (human) (P32298 whole entry, looked up): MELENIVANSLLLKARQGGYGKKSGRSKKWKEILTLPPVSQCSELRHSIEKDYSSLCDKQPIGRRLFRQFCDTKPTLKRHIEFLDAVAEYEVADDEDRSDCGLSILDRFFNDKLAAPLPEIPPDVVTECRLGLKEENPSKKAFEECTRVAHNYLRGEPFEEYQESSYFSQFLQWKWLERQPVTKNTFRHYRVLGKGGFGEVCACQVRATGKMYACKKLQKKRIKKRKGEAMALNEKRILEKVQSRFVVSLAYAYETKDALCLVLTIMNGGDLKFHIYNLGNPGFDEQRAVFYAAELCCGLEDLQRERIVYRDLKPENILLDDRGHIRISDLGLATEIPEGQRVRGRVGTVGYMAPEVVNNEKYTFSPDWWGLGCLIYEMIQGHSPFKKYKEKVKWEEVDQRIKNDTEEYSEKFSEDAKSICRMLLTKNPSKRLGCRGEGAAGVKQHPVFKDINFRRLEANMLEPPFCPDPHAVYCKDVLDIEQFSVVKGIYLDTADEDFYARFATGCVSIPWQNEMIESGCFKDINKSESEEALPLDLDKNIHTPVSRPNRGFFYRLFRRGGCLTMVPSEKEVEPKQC
Sequence of MAK (human) (P20794 whole entry, looked up): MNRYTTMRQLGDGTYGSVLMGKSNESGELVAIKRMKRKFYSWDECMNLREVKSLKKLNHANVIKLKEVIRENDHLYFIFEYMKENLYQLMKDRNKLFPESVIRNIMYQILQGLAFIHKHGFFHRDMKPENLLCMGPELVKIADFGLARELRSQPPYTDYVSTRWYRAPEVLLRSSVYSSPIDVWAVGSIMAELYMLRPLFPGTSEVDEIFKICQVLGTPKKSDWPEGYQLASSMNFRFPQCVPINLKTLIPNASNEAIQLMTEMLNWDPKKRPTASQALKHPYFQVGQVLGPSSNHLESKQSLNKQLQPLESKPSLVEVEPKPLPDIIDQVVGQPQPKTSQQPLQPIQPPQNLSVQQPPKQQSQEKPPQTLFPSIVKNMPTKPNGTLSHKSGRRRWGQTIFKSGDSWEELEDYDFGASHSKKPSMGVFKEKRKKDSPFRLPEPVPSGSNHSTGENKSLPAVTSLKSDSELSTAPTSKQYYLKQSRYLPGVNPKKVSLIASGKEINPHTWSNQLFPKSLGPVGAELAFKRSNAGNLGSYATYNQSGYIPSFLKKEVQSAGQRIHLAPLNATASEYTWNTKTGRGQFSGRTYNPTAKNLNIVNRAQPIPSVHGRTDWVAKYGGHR

Row | Structure (SMILES) | kinase still bound, per cent of control [1] [%] | kinase still bound, per cent of control [2] [%] | kinase still bound, per cent of control [3] [%] | kinase still bound, per cent of control [4] [%] | kinase still bound, per cent of control [5] [%] | kinase still bound, per cent of control [6] [%] | kinase still bound, per cent of control [7] [%] | kinase still bound, per cent of control [8] [%] | kinase still bound, per cent of control [9] [%] | kinase still bound, per cent of control [12] [%] | kinase still bound, per cent of control [13] [%] | kinase still bound, per cent of control [14] [%] | kinase still bound, per cent of control [15] [%] | kinase still bound, per cent of control [17] [%] | kinase still bound, per cent of control [18] [%] | kinase still bound, per cent of control [19] [%] | kinase still bound, per cent of control [20] [%] | kinase still bound, per cent of control [21] [%] | kinase still bound, per cent of control [22] [%] | kinase still bound, per cent of control [23] [%] | also measured
1 | O=C(NOC[C@H](O)CO)c1ccc(F)c(F)c1Nc1ccc(I)cc1F | 86 | 100 | 100 | 100 | 100 | 80 | 50 | 98 | 100 | 100 | 100 | 84 | 93 | 100 | 84 | 78 | 77 | 95 | 100 | 100 | kinase still bound, per cent of control [10]: 100%; kinase still bound, per cent of control [11]: 56%; kinase still bound, per cent of control [16]: 50%; kinase still bound, per cent of control [24]: 87%; kinase still bound, per cent of control [25]: 96%; kinase still bound, per cent of control [26]: 100%; kinase still bound, per cent of control [27]: 100%; kinase still bound, per cent of control [28]: 48%; kinase still bound, per cent of control [29]: 91%; kinase still bound, per cent of control [30]: 100%; kinase still bound, per cent of control [31]: 100%; kinase still bound, per cent of control [32]: 84%; kinase still bound, per cent of control [33]: 70%; kinase still bound, per cent of control [34]: 78%; kinase still bound, per cent of control [35]: 100%; kinase still bound, per cent of control [36]: 100%
2 | Nc1ccc(-c2ccc3ncc4ccc(=O)n(-c5cccc(C(F)(F)F)c5)c4c3c2)cn1 | 84 | 100 | 71 | 88 | 100 | 100 | 100 | 100 | 51 | 21 | 96 | 90 | 100 | 92 | 100 | 100 | 100 | 100 | 100 | 92 | kinase still bound, per cent of control [37]: 100%; kinase still bound, per cent of control [38]: 93%; kinase still bound, per cent of control [39]: 100%; kinase still bound, per cent of control [10]: 100%; kinase still bound, per cent of control [24]: 100%; kinase still bound, per cent of control [25]: 100%; kinase still bound, per cent of control [26]: 100%; kinase still bound, per cent of control [27]: 75%; kinase still bound, per cent of control [29]: 63%; kinase still bound, per cent of control [30]: 100%; kinase still bound, per cent of control [40]: 88%; kinase still bound, per cent of control [31]: 100%; kinase still bound, per cent of control [32]: 79%; kinase still bound, per cent of control [33]: 100%; kinase still bound, per cent of control [34]: 52%; kinase still bound, per cent of control [35]: 85%; kinase still bound, per cent of control [36]: 84%
3 | Cc1ccc2nc(NCCN)c3ncc(C)n3c2c1 | 96 | 100 | 87 | 100 | 100 | 100 | 100 | 98 | 92 | 100 | 100 | 75 | 58 | 70 | 4.7 | 100 | 66 | 100 | 100 | 100 | kinase still bound, per cent of control [37]: 100%; kinase still bound, per cent of control [38]: 100%; kinase still bound, per cent of control [39]: 100%; kinase still bound, per cent of control [11]: 100%; kinase still bound, per cent of control [16]: 52%; kinase still bound, per cent of control [24]: 100%; kinase still bound, per cent of control [25]: 100%; kinase still bound, per cent of control [26]: 100%; kinase still bound, per cent of control [27]: 39%; kinase still bound, per cent of control [28]: 23%; kinase still bound, per cent of control [29]: 0%; kinase still bound, per cent of control [30]: 100%; kinase still bound, per cent of control [40]: 100%; kinase still bound, per cent of control [31]: 100%; kinase still bound, per cent of control [32]: 100%; kinase still bound, per cent of control [33]: 88%; kinase still bound, per cent of control [34]: 52%; kinase still bound, per cent of control [35]: 100%; kinase still bound, per cent of control [36]: 78%
